Consider 25 compounds from US20170291890A1 (Epizyme, Inc., priority 2014, published 2017).

For experiment [1], the target named is T1, KDM4C (Homo sapiens, UniProt Q9H3R0).
T1 construct: N-terminal GST-tagged KDM4C^2-372 was purchased from BPS Biosciences; GST (N); purchased BPS Biosciences
T1 sequence (Q9H3R0 2-372): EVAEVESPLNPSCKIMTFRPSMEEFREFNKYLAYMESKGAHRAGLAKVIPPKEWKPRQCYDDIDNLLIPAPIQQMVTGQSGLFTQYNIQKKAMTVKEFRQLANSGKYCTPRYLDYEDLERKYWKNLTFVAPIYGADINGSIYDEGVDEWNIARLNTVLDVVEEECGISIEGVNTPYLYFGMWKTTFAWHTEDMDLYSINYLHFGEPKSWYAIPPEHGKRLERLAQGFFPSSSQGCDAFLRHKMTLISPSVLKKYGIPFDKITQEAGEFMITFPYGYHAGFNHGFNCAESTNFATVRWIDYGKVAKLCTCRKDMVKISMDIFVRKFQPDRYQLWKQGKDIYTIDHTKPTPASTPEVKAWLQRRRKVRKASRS
Nature of the experiment: KDM4C Assay (SAMDI mass spectrometry demethylase assay). Conditions: N-terminal GST-tagged KDM4C 2-372; class symbols; read-out: 4C IC50. Format: biochemical. The procedure: (§1) N-terminal GST-tagged KDM4C^2-372 was purchased from BPS Biosciences. Peptides were synthesized by BioPeptide and all other reagents were purchased from Sigma-Aldrich at the highest level of purity possible. Assays were performed in a 50 μL volume in 384-well V-bottom polypropylene microplates (Greiner) at 25° C. Optimized 1× assay buffer was 50 mM HEPES (pH=8.0), 100 μM sodium ascorbate, 20 mM NaCl, 10 μM ammonium iron sulfate, 1 mM tris(2-carboxyethyl)phosphine (TCEP), 0.002% Tween-20, and 0.005% BSG. For compound screening, 35 μL of KDM4C^2-372 (final concentration, f.c.=5 nM) was added using a Multidrop Combi and preincubated with 1 μL of test compound (f.c.=10 μM) for 30 minutes and subsequently 15 μL of peptide with the following sequence NH2-ARTKQTAR(Kme3)STGGKAPRKQLA(K-Ahx-Biotin)-amide (f.c.=500 nM) and 2-oxoglutarate (f.c.=15 μM) was added by Multidrop Combi to begin the reaction. Reactions proceeded for 150 minutes and were stopped by the addition of 5 μL of formic acid (f.c.=0.5%) using a Multidrop Combi and then analyzed by SAMDI Tech Inc.
(§2) SAMDI Tech analyzed all reactions using self-assembled monoloayer desorption/ionization technology as previously described (Gerard-Levin Z A, Scholle M D, Eisenberg A H, et al.: High-throughput screening of small molecule libraries using SAMDI mass spectrometry. ACS Comb Sci 2011; 13:347-350). Briefly, a 2 μL sample of the stopped demethylase reactions were transferred to a SAMDI array coated with 384 biotin-neutravidin spots using a 384-channel pipet station. The SAMDI arrays were incubated for 1 h in a humidified chamber, followed by washing of the surface with deionized ultra-filtered water (DIUF) and drying under nitrogen. A matrix of 30 mg/ml 2′,4′,6′-Trihydroxyacetophenone monohydrate (THAP) in acetone was applied using a TPP Mosquito 1.2 μL tip by dispensing 50 nL on each of the 384 spots on the array. SAMDI-MS was run using acquisition method ReflectorPositiveUTX. The % conversion of substrate to product was calculated using the AUC of the substrate and product peptide peaks.
(§3) An IC50 value was determined by contacting various concentrations of a test compound with one of the KDM4A, KDM4C or KDMSC enzyme constructs and plotting a dose-response curve which associates the amount of inhibition of the enzyme relative to the concentration of the test compound. From the curve, the IC50 value (which represents the concentration of the test compound necessary to inhibit maximal enzymatic activity by 50%) was determined. Additionally, the slope of the linear range of the plotted curve, which indicates the speed with which the curve rises between the minimum and maximum, was calculated.

In experiment [2] the target is T2, KDM4A (Homo sapiens, UniProt O75164).
T2 construct: N-terminal His-tagged KDM4A^1-350 was purchased from BPS Biosciences; His (N); purchased BPS Biosciences
T2 sequence (O75164 1-350): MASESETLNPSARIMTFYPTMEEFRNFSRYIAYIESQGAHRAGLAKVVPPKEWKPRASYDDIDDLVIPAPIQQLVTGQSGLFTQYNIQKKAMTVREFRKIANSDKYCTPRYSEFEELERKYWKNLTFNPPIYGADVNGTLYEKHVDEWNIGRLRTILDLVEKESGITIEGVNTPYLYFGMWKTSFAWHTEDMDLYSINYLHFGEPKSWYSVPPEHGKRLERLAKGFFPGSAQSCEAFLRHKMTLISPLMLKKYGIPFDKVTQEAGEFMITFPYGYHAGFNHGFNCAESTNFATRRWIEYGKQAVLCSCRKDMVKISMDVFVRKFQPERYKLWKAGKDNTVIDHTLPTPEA
Nature of the experiment: KDM4A Assay (SAMDI mass spectrometry demethylase assay). Type of experiment: biochemical. Conditions: N-terminal His-tagged KDM4A 1-350; class symbols; read-out: 4A IC50. The procedure:
as §1, with “His-tagged KDM4A^1-350” for “GST-tagged KDM4C^2-372”, “KDM4A^1-350” for “KDM4C^2-372”, “NH2-ARTKQTAR(Kme2)STGGKAPRKQLA(K-Ahx-Biotin)-amide (f.c.=600” for “NH2-ARTKQTAR(Kme3)STGGKAPRKQLA(K-Ahx-Biotin)-amide (f.c.=500”, “(f.c.=5” for “(f.c.=15”, “120” for “150”
as §2, §3

One may read the IC50 as the concentration that inhibits the measured activity by half. Regarding `Cc1nn(C2CCCNCC2)cc1Nc1cnccc1C(=O)O` (single isomer, unassigned) [Compound 114], the IC50 in experiment [1] and in experiment [2] was 100 to 1000 nM each time.
For `Cc1nn(C2CCCNCC2)cc1Nc1cnccc1C(=O)O` (single isomer, unassigned) [Compound 116], the IC50 in experiment [1] and in experiment [2] was 100 to 1000 nM in each case.
In the case of `Cn1ncc(-c2ccccc2)c1Nc1cnccc1C(=O)O` [Compound 1], the IC50 in experiment [1] and in experiment [2] was 100 to 1000 nM throughout.
As to `Cc1cn(-c2ccccc2)c(Nc2cnccc2C(=O)O)n1` [Compound 2], the IC50 in experiment [1] and in experiment [2] was 100 to 1000 nM in each case.
In the case of `Cn1cc(-c2ccccc2)c(Nc2cnccc2C(=O)O)n1` [Compound 3], the IC50 in experiment [1] and in experiment [2] was 1000 to 10000 nM in each case.
In the case of `Cn1nc(-c2ccccc2)cc1Nc1cnccc1C(=O)O` [Compound 6], the IC50 in experiment [1] is 1000 to 10000 nM; in experiment [2], 100 to 1000 nM.
Take `Cn1cc(-c2ccc(F)cc2)c(Nc2cnccc2C(=O)O)n1` [Compound 7, 3-((4-(4-Fluorophenyl)-1-methyl-1H-pyrazol-3-yl)amino) isonicotinic acid]: the IC50 in experiment [1] and in experiment [2] was 100 to 1000 nM each time.
For the compound `Cn1ncc(-c2ccc(F)cc2)c1Nc1cnccc1C(=O)O` [Compound 8, 3-((4-(4-fluorophenyl)-1-methyl-1H-pyrazol-5-yl)amino) isonicotinic acid], the IC50 in experiment [1] and in experiment [2] was 1000 to 10000 nM throughout.
Take `Cn1cc(-c2cccc(F)c2)c(Nc2cnccc2C(=O)O)n1` [Compound 9, 3-((4-(3-Fluorophenyl)-1-methyl-1H-pyrazol-3-yl)amino) isonicotinic acid]: the IC50 in experiment [1] and in experiment [2] was 100 to 1000 nM in each case.
With `Cn1ncc(-c2cccc(F)c2)c1Nc1cnccc1C(=O)O` [Compound 10, 3-((4-(3-Fluorophenyl)-1-methyl-1H-pyrazol-5-yl)amino) isonicotinic acid], the IC50 in experiment [1] and in experiment [2] was 1000 to 10000 nM in each case.
As for `Cn1cc(-c2ccccc2F)c(Nc2cnccc2C(=O)O)n1` [Compound 11, 3-((4-(2-Fluorophenyl)-1-methyl-1H-pyrazol-3-yl)amino) isonicotinic acid], the IC50 in experiment [1] and in experiment [2] was 100 to 1000 nM each time.
`Cn1ncc(-c2ccccc2F)c1Nc1cnccc1C(=O)O` [Compound 12, 3-((4-(2-fluorophenyl)-1-methyl-1H-pyrazol-5-yl)amino) isonicotinic acid]: the results for the concentration for half-maximal inhibition (IC50) in experiment [1] and in experiment [2] were 1 to 100 nM and 100 to 1000 nM, respectively.
The like results for `Cn1cc(Nc2cnccc2C(=O)O)c(-c2ccccc2)n1` [Compound 13, 3-((1-methyl-3-phenyl-1H-pyrazol-4-yl)amino) isonicotinic acid] were, in that order, 100 to 1000 nM and 1000 to 10000 nM.
For `O=C(O)c1ccncc1Nc1nn(CCN2CCC(F)(F)CC2)cc1-c1ccccc1` [Compound 14, 3-((1-(2-(4,4-Difluoropiperidin-1-yl)ethyl)-4-phenyl-1H-pyrazol-3-yl)amino)isonicotinic acid] the same measures were 100 to 1000 nM and 100 to 1000 nM.
Regarding `O=C(O)c1ccncc1Nc1c(-c2ccccc2)cnn1CCN1CCC(F)(F)CC1` [Compound 15, 3-((1-(2-(4,4-difluoropiperidin-1-yl)ethyl)-4-phenyl-1H-pyrazol-5-yl)amino)isonicotinic acid], the IC50 in experiment [1] and in experiment [2] was 10000 to 100000 nM throughout.
Take `Cc1n[nH]c(C)c1Nc1cnccc1C(=O)O` [Compound 16, 3-((3,5-Dimethyl-1H-pyrazol-4-yl)amino)isonicotinic acid]: the figures for the IC50 in experiment [1] and in experiment [2] were 10000 to 100000 nM and 1000 to 10000 nM, respectively.
As for `O=C(O)c1ccncc1Nc1cn(CCN2CCC(F)(F)CC2)nc1-c1ccccc1` [Compound 17, 3-((1-(2-(4,4-Difluoropiperidin-1-yl)ethyl)-3-phenyl-1H-pyrazol-4-yl)amino)isonicotinic acid], the IC50 in experiment [1] and in experiment [2] was 1000 to 10000 nM throughout.
As to `O=C(O)c1ccncc1Nc1cnn(CCN2CCC(F)(F)CC2)c1-c1ccccc1` [Compound 18, 3-((1-(2-(4,4-difluoropiperidin-1-yl)ethyl)-5-phenyl-1H-pyrazol-4-yl)amino)isonicotinic acid], the IC50 in experiment [1] and in experiment [2] was 100 to 1000 nM in each case.
On to `Cc1nn(-c2ccccc2)cc1Nc1cnccc1C(=O)O` [Compound 19, 3-((3-Methyl-1-phenyl-1H-pyrazol-4-yl)amino)isonicotinic acid], for which the IC50 in experiment [1] was in the range of 100 to 1000 nM; in experiment [2], 1 to 100 nM.
For `Cc1c(Nc2cnccc2C(=O)O)cnn1-c1ccccc1` [Compound 20, 3-((5-methyl-1-phenyl-1H-pyrazol-4-yl)amino)isonicotinic acid] the same measures were 1 to 100 nM and 1 to 100 nM.
As for `O=C(O)c1ccncc1Nc1cc(-c2ccccc2)nn1-c1ccccc1` [Compound 21, 3-((1,3-Diphenyl-1H-pyrazol-5-yl)amino)isonicotinic acid], the IC50 in experiment [1] fell in the range of 100 to 1000 nM; in experiment [2], 1000 to 10000 nM.
`CC(C)n1nc(-c2ccccc2)cc1Nc1cnccc1C(=O)O` [Compound 22, 3-((1-Isopropyl-3-phenyl-1H-pyrazol-5-yl)amino)isonicotinic acid]: the IC50 in experiment [1] and in experiment [2] was 100 to 1000 nM in each case.
In the case of `O=C(O)c1ccncc1Nc1cc(-c2ccccc2)nn1C1CCOCC1` [Compound 23, 3-((3-Phenyl-1-(tetrahydro-2H-pyran-4-yl)-1H-pyrazol-5-yl)amino)isonicotinic acid], the results for the IC50 in experiment [1] and in experiment [2] were 100 to 1000 nM and 1000 to 10000 nM, respectively.
For the compound `Cn1nc(-c2ccc(Cl)cc2)cc1Nc1cnccc1C(=O)O` [Compound 24, 3-((3-(4-Chlorophenyl)-1-methyl-1H-pyrazol-5-yl)amino) isonicotinic acid], the IC50 in experiment [1] was in the range of 1000 to 10000 nM; in experiment [2], 100 to 1000 nM.
As to `Cn1nc(-c2cccc(Cl)c2)cc1Nc1cnccc1C(=O)O` [Compound 25, 3-((3-(3-chlorophenyl)-1-methyl-1H-pyrazol-5-yl)amino) isonicotinic acid], the IC50 in experiment [1] was in the range of 1000 to 10000 nM; in experiment [2], 100 to 1000 nM.
